Where two headings read alike, the source gives them in different places.

A short description of data set [1]: Volatility of compounds measured by thermogravimetric analysis (TGA), rate of weight loss. The class given is physicochemical. As to conditions: estimates of volatility. The text has this:
Briefly, the rate of weight loss measured in units of […]g/min can be used to determine vapor pressure as shown by the simplified equation: wherein, k is the intrinsic volatility and A is the surface area, Referring now to FIG. 2. A graph of weight loss as function of time for solid samples produces a linear curve; the slope of the curve is the rate of weight loss. When this method is used to measure the volatility of aqueous salt concentrates or liquid concentrates, the water or acetone present in the sample volatilizes before the sample of interest. The first linear loss region of the curve is the loss of water or acetone and the second linear region is characteristic of the sample of interest. In order to illustrate the difference in volatility between some of the compounds disclosed herein and the widely used herbicide dicamba, data from both the compounds and dicamba are presented Table 3 and in FIG. 1.

The subject of data set [2] is Conyza canadensis (L.) (ERICA). Kind of data set: Postemergence herbicide evaluation, percent reduction in plant size vs untreated control, 21 days after treatment. It is filed as in vivo, Conyza canadensis (L.) (Horseweed). As to conditions: Erigeron canadensis, post-emergence, 504 h, ERICA, postemergence, read-out: Control/Injury; for pest or weed control at 140 g/ha: rate 140 g ae/ha; for pest or weed control at 280 g/ha: rate 280 g ae/ha. Put shortly: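 Track-sprayer applications (187 L/ha, 276 kPa) of 140 or 280 g ae/ha, technical material dissolved in acetone/DMSO then diluted with crop oil and surfactant-containing solvent, to greenhouse Conyza canadensis at 2-8 leaves. After 21 days, size reduction relative to untreated plants was recorded; 3-4 randomized replicates.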

In a further data set the test system is Amaranthus rudis (AMATA). The data set is described as above. It is filed as in vivo, Amaranthus rudis (tall water hemp). As to conditions: Amaranthus tuberculatus, post-emergence, 504 h, AMATA, postemergence, read-out: Control/Injury; for pest or weed control at 140 g/ha: rate 140 g ae/ha; for pest or weed control at 280 g/ha: rate 280 g ae/ha. Put shortly:
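Growth-reduction values are percent decrease in plant size relative to untreated plants, scored 21 days post-application. Amaranthus rudis (2-8 leaves) received postemergence sprays at 140 or 280 g ae/ha, 187 L/ha, in a mixed acetone/DMSO/water/isopropanol carrier with crop oil concentrate. Greenhouse conditions were 25-28° C, 50-60% RH; 3-4 randomized replicates.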

Data set [3] deals with Ambrosia artemisiifolia (AMBEL). The data set is described as above. The class given is in vivo, Ambrosia artemisiifolia (common ragweed). The settings on record: post-emergence, 504 h, AMBEL, postemergence, read-out: Control/Injury; for pest or weed control at 140 g/ha: rate 140 g ae/ha; for pest or weed control at 280 g/ha: rate 280 g ae/ha. In short, it runs like this: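 Test compounds at 140 or 280 g ae/ha were applied by track sprayer (187 L/ha, spray solution containing acetone/DMSO, isopropanol, crop oil, surfactant) to 2–8 leaf plants, 3–4 replicates. Plants were kept in a greenhouse at 25–28 °C. Size reduction was scored against untreated controls at 21 days.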

The test system of another data set is Kochia scoparia (KCHSC). The data set is described as above. The settings on record: Bassia scoparia, post-emergence, 504 h, KCHSC, postemergence, percent reduction vs untreated, 21 days after treatment, read-out: Control/Injury; for pest or weed control at 140 g/ha: rate 140 g ae/ha; for pest or weed control at 280 g/ha: rate 280 g ae/ha. The class given is in vivo. Put shortly: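 Values are percent reduction in plant size against an untreated control, measured 21 days after a single postemergence spray at 140 or 280 g ae/ha (187 L/ha, 276 kPa). Treatments used 3-4 randomized complete-block replicates on 2 to 8 leaf-stage plants kept in a 25-28 °C greenhouse, with compounds in acetone/DMSO-based solvent containing crop oil and surfactant.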

Data set [4] concerns Amaranthus palmeri (AMAPA). The description is as above. The class given is in vivo, Amaranthus palmeri (Palmer amaranth). As to conditions: post-emergence, 504 h, postemergence, read-out: Control/Injury; for pest or weed control at 140 g/ha: rate 140 g ae/ha; for pest or weed control at 280 g/ha: rate 280 g ae/ha. Put shortly: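 Percent reduction in plant size relative to untreated plants, measured 21 days after track-sprayer application (187 L/ha) of 140 or 280 g ae/ha to Amaranthus palmeri at the 2 to 8 leaf stage. Randomized complete block, 3 or 4 replicates, greenhouse at 25 to 28° C; spray solution acetone/DMSO with isopropanol, water and crop oil concentrate.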

A further data set has as its system Glycine max. The data set is described as follows: whole plant or invertebrate. The settings on record: in vivo. Put shortly: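 Greenhouse soybean (25–28 °C, 16 h light) sprayed post-emergence at 2–8 leaf stage with 140 or 280 g ae/ha in acetone/DMSO-based spray solution with crop oil concentrate, 187 L/ha by track sprayer; 3–4 replicates, randomized blocks. Plant size reduction versus untreated control measured 21 days after treatment.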

The mark [5] stands for this setting: percent reduction vs untreated control, 21 days after treatment.
[6] abbreviates: R-AMAPA, percent reduction vs untreated control, 21 days after treatment.
Setting [7] is: percent reduction vs untreated, 21 days after treatment.

Take `COc1c(Cl)ccc(Cl)c1C(=O)O/N=C(\N)C1CCCCC1` [Compound A-6]: in data set [1], the Volatility is 0.064 ng/min. Further, in data set [2] (setting [5]), the pest or weed control at 140 g/ha came to 98% and the pest or weed control at 280 g/ha turned out to be 98%.
As for `COc1c(Cl)ccc(Cl)c1C(=O)O/N=C(\N)Cc1ccccc1` [Compound A-8], the Volatility in data set [1] is on record as 0.189 ng/min. In data set [2] (setting [5]), the pest or weed control at 140 g/ha came to 98% and the pest or weed control at 280 g/ha came out at 99%.
For `COc1c(Cl)ccc(Cl)c1C(=O)O/N=C(\N)c1ccccc1Cl` [Compound A-13], in data set [1], the Volatility was 0.012 ng/min.
Take `COc1c(Cl)ccc(Cl)c1C(=O)O/N=C(\N)c1ccc(Cl)c(Cl)c1` [Compound A-14]: in data set [1], the Volatility is on record as 0.056 ng/min.
For `COc1c(Cl)ccc(Cl)c1C(=O)O/N=C(\N)c1ccc(Cl)cc1Cl` [Compound A-15], the Volatility in data set [1] is 0.0098 ng/min. In addition, in data set [2] (setting [5]), the pest or weed control at 140 g/ha is 98% and the pest or weed control at 280 g/ha was determined as 96%.
The corresponding values for `COc1c(Cl)ccc(Cl)c1C(=O)O/N=C(\N)c1ccc(C)cc1` [Compound A-17] are 0.026 ng/min, 94% and 95%.
Regarding `COc1ccc(/C(N)=N/OC(=O)c2c(Cl)ccc(Cl)c2OC)cc1` [Compound A-20], the Volatility in data set [1] is recorded as 0.04 ng/min.
In the case of `COc1ccccc1/C(N)=N/OC(=O)c1c(Cl)ccc(Cl)c1OC` [Compound A-21], in data set [1], the Volatility was 0.074 ng/min. In data set [2] (setting [5]), the pest or weed control at 140 g/ha came to 95% and the pest or weed control at 280 g/ha is 98%.
The corresponding values for `COc1c(Cl)ccc(Cl)c1C(=O)O/N=C(\N)c1ccc2ncccc2c1` [Compound A-25] are 0.021 ng/min, 95% and 90%.
The corresponding values for `COc1c(Cl)ccc(Cl)c1C(=O)O/N=C(\N)c1ccc2ccoc2c1` [Compound A-26] are 0.0034 ng/min, 93% and 93%.
`COc1c(Cl)ccc(Cl)c1C(=O)O/N=C(\N)c1ccncc1` [Compound A-33]: in data set [1], the Volatility is reported as 0.015 ng/min. Moreover, in data set [2] (setting [5]), the pest or weed control at 140 g/ha was found to be 87% and the pest or weed control at 280 g/ha came to 93%.
For `COc1c(Cl)ccc(Cl)c1C(=O)O/N=C(\N)c1ccccn1` [Compound A-34] the same measures were 0.039 ng/min, 87% and 97%.
Regarding `COc1c(Cl)ccc(Cl)c1C(=O)OCc1cccnc1` [Compound A-45], in data set [1], the Volatility is recorded as 0.73 ng/min.
For the molecule `COc1c(Cl)ccc(Cl)c1C(=O)OCc1ccc(COC(=O)c2c(Cl)ccc(Cl)c2OC)cc1` [Compound A-56], in data set [1], the Volatility is on record as 0.08 ng/min.
Take `COc1c(Cl)ccc(Cl)c1C(=O)O/N=C(\C)C/C(C)=N/OC(=O)c1c(Cl)ccc(Cl)c1OC` [Compound A-58]: the Volatility in data set [1] is 0.11 ng/min.
As to `COc1c(Cl)ccc(Cl)c1C(=O)Oc1cc(C(F)(F)F)n(C)n1` [Compound A-118], the pest or weed control at 140 g/ha in the data set on Amaranthus rudis (AMATA) was 68%; in data set [3], 80%; in the data set with Kochia scoparia (KCHSC) it was 83%; in data set [4] (AMAPA), 63%; in data set [2] it was 93%. The pest or weed control at 280 g/ha in the data set on Amaranthus rudis (AMATA) stood at 80%; in data set [3], 97%; with Kochia scoparia (KCHSC), 99%; in data set [4] (AMAPA) it was 73%; in data set [2], 96%. This molecule yielded a Control/Injury with Glycine max of 8.
`COc1c(Cl)ccc(Cl)c1C(=O)Oc1nc(-c2ccccc2)cs1` [Compound A-120]: the pest or weed control at 140 g/ha was 40% in the data set on Amaranthus rudis (AMATA); 68% in data set [3]; 63% in the data set with Kochia scoparia (KCHSC); 28% in data set [4] (AMAPA); 85% in data set [2]. For the same molecule, the pest or weed control at 280 g/ha in the data set with Amaranthus rudis (AMATA) was 58%; in data set [3] it was 85%; in the data set with Kochia scoparia (KCHSC) it was 85%; in data set [4] (AMAPA), 45%; in data set [2], 99%. For the same molecule, the Control/Injury with Glycine max was 5.
On to `COc1c(Cl)ccc(Cl)c1C(=O)O/N=C/c1cccc(/C=N/OC(=O)c2c(Cl)ccc(Cl)c2OC)c1` [Compound A-143], for which the pest or weed control at 140 g/ha with Amaranthus rudis (AMATA) was found to be 73%; in data set [3], 86%; in the data set on Kochia scoparia (KCHSC), 88%; in data set [4] (setting [6]) it was 70%; in data set [2] (setting [7]), 80%. Also, the pest or weed control at 280 g/ha with Amaranthus rudis (AMATA) was found to be 48%; in data set [3] it was 86%; in the data set on Kochia scoparia (KCHSC) it was 88%; in data set [4] (setting [6]), 64%; in data set [2] (setting [7]), 93%. In addition, the Control/Injury in the data set with Glycine max came to 0.
With `COc1c(Cl)ccc(Cl)c1C(=O)O/N=C(\N)CCC/C(N)=N/OC(=O)c1c(Cl)ccc(Cl)c1OC` [Compound A-144], the pest or weed control at 140 g/ha was determined as 71% in the data set on Amaranthus rudis (AMATA); 88% in data set [3]; 89% in the data set with Kochia scoparia (KCHSC); 59% in data set [4] (setting [6]); 83% in data set [2] (setting [7]). Also, the pest or weed control at 280 g/ha in the data set with Amaranthus rudis (AMATA) amounted to 77%; in data set [3] it was 88%; with Kochia scoparia (KCHSC), 99%; in data set [4] (setting [6]), 71%; in data set [2] (setting [7]), 75%. Also, the Control/Injury in the data set on Glycine max is recorded as 0.
As for `COc1c(Cl)ccc(Cl)c1C(=O)O/N=C(\N)CCCCC/C(N)=N/OC(=O)c1c(Cl)ccc(Cl)c1OC` [Compound A-146], the pest or weed control at 140 g/ha in the data set on Amaranthus rudis (AMATA) was 70%; in data set [3], 83%; with Kochia scoparia (KCHSC) it was 89%; in data set [4] (setting [6]) it was 43%; in data set [2] (setting [7]) it was 73%. Further, the pest or weed control at 280 g/ha was found to be 63% with Amaranthus rudis (AMATA); 86% in data set [3]; 96% in the data set with Kochia scoparia (KCHSC); 60% in data set [4] (setting [6]); 63% in data set [2] (setting [7]). In the data set on Glycine max, this molecule gave a Control/Injury of 0.

The values above are taken from patent publication US20240122179A1, “AUXINIC HERBICIDES AND METHODS OF USE THEREOF” (CORTEVA AGRISCIENCE LLC, priority 2021, published 2024).
